Laboratory results as given in ChEMBL document CHEMBL1201861, “Genomics of Drug Sensitity in Cancer screening data, Wellcome Trust Sanger Institute”.

Legend:
Assay in all cases: cells
LU-139 = format: functional, cell-based, Homo sapiens
Description: SANGER: Inhibition of human LU-139 cell growth in a cell viability assay.

HuTu80 = format: functional, cell-based, Homo sapiens, HUTU-80;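 also: growth inhibition of HuTu80 human cells, determined with a cell viability readout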
Description: SANGER: Inhibition of human HUTU-80 cell growth in a cell viability assay.

JAR = format: functional, cell-based, Homo sapiens;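 also: growth inhibition of human JAR cells determined with a cell viability assay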
Description: SANGER: Inhibition of human JAR cell growth in a cell viability assay.

NCI-N87 = format: functional, cell-based, Homo sapiens;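 also: growth inhibition of human NCI-N87 cells, read out with a cell viability assay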
Description: SANGER: Inhibition of human NCI-N87 cell growth in a cell viability assay.

KNS-42 = format: functional, cell-based, Homo sapiens;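 also: growth inhibition of KNS-42 cells, read out with a cell viability assay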
Description: SANGER: Inhibition of human KNS-42 cell growth in a cell viability assay.

MOLT-16 = format: functional, cell-based, Homo sapiens;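 also: growth inhibition of human MOLT-16 cells, read out with a cell viability assay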
Description: SANGER: Inhibition of human MOLT-16 cell growth in a cell viability assay.

UACC-257 = format: functional, cell-based, Homo sapiens
Description: SANGER: Inhibition of human UACC-257 cell growth in a cell viability assay.

GOTO = format: functional, cell-based, Homo sapiens;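 also: growth inhibition of GOTO cells, read out by a cell viability assay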
Description: SANGER: Inhibition of human GOTO cell growth in a cell viability assay.

MEG-01 = format: functional, cell-based, Homo sapiens;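 also: growth inhibition of MEG-01 cells, read out by a cell viability assay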
Description: SANGER: Inhibition of human MEG-01 cell growth in a cell viability assay.

D-247MG = format: functional, cell-based, Homo sapiens
Description: SANGER: Inhibition of human D-247MG cell growth in a cell viability assay.

MZ7-mel = format: functional, cell-based, Homo sapiens;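 also: growth inhibition of human MZ7-mel cells, measured by a cell viability assay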
Description: SANGER: Inhibition of human MZ7-mel cell growth in a cell viability assay.

SK-N-DZ = format: functional, cell-based, Homo sapiens;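 also: growth inhibition of the cancer cell line, read out through a viability assay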
Description: SANGER: Inhibition of human SK-N-DZ cell growth in a cell viability assay.

MFM-223 = format: functional, cell-based, Homo sapiens
Description: SANGER: Inhibition of human MFM-223 cell growth in a cell viability assay.

LC-2-ad = format: functional, cell-based, Homo sapiens;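 also: growth inhibition of human LC-2-ad cells, read out with a cell viability assay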
Description: SANGER: Inhibition of human LC-2-ad cell growth in a cell viability assay.

NCI-H446 = format: functional, cell-based, Homo sapiens;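 also: growth inhibition of NCI-H446 cells determined by a cell viability assay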
Description: SANGER: Inhibition of human NCI-H446 cell growth in a cell viability assay.

KINGS-1 = format: functional, cell-based, Homo sapiens;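 also: cell viability assay measuring suppression of KINGS-1 cell growth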
Description: SANGER: Inhibition of human KINGS-1 cell growth in a cell viability assay.

NCI-H510A = format: functional, cell-based, Homo sapiens;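 also: growth inhibition of NCI-H510A cells, read out with a cell viability assay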
Description: SANGER: Inhibition of human NCI-H510A cell growth in a cell viability assay.

JVM-3 = format: functional, cell-based, Homo sapiens;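 also: growth inhibition of human JVM-3 cells, read out with a cell viability assay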
Description: SANGER: Inhibition of human JVM-3 cell growth in a cell viability assay.

ES5 = format: functional, cell-based, Homo sapiens;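 also: growth inhibition of human ES5 cells, read out by a cell viability assay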
Description: SANGER: Inhibition of human ES5 cell growth in a cell viability assay.

EKVX = format: functional, cell-based, Homo sapiens;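 also: growth inhibition of human EKVX cells, read out with a cell viability assay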
Description: SANGER: Inhibition of human EKVX cell growth in a cell viability assay.

LS-123 = format: functional, cell-based, Homo sapiens
Description: SANGER: Inhibition of human LS-123 cell growth in a cell viability assay.

NTERA-2-cl-D1 = format: functional, cell-based, Homo sapiens;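 also: inhibition of cell growth, measured with a cell viability assay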
Description: SANGER: Inhibition of human NTERA-S-cl-D1 cell growth in a cell viability assay.

GAK = format: functional, cell-based, Homo sapiens;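 also: cell growth inhibition read out by a cell viability assay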
Description: SANGER: Inhibition of human GAK cell growth in a cell viability assay.

NCI-H226 = format: functional, cell-based, Homo sapiens;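 also: cell viability read-out used to gauge growth inhibition of the cells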
Description: SANGER: Inhibition of human NCI-H226 cell growth in a cell viability assay.

OMC-1 = format: functional, cell-based, Homo sapiens;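 also: growth inhibition of the OMC-1 cell line, measured by a cell viability assay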
Description: SANGER: Inhibition of human OMC-1 cell growth in a cell viability assay.

EW-1 = format: functional, cell-based, Homo sapiens;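 also: growth inhibition of the human EW-1 cell line, read out by a cell viability assay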
Description: SANGER: Inhibition of human EW-1 cell growth in a cell viability assay.

L-363 = format: functional, cell-based, Homo sapiens
Description: SANGER: Inhibition of human L-363 cell growth in a cell viability assay.

A388 = format: functional, cell-based, Homo sapiens;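 also: growth inhibition of human A388 cells, read out with a cell viability assay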
Description: SANGER: Inhibition of human A388 cell growth in a cell viability assay.

GI-1 = format: functional, cell-based, Homo sapiens;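 also: growth inhibition of human GI-1 cells, measured with a cell viability readout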
Description: SANGER: Inhibition of human GI-1 cell growth in a cell viability assay.

IST-MES1 = format: functional, cell-based, Homo sapiens;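 also: growth inhibition of IST-MES1 cells, measured with a cell viability assay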
Description: SANGER: Inhibition of human IST-MES1 cell growth in a cell viability assay.

OCI-AML2 = format: functional, cell-based, Homo sapiens;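 also: growth inhibition of OCI-AML2 cells, read out with a cell viability assay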
Description: SANGER: Inhibition of human OCI-AML2 cell growth in a cell viability assay.

MFH-ino = format: functional, cell-based, Homo sapiens;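 also: growth inhibition of human MFH-ino cells, read out by a cell viability assay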
Description: SANGER: Inhibition of human MFH-ino cell growth in a cell viability assay.

OS-RC-2 = format: functional, cell-based, Homo sapiens;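 also: growth inhibition of human OS-RC-2 cells, measured by a cell viability assay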
Description: SANGER: Inhibition of human OS-RC-2 cell growth in a cell viability assay.

no-10 = format: functional, cell-based, Homo sapiens;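 also: growth inhibition of no-10 cells, read out with a cell viability assay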
Description: SANGER: Inhibition of human no-10 cell growth in a cell viability assay.

NCI-H720 = format: functional, cell-based, Homo sapiens;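 also: growth inhibition of human NCI-H720 cells determined by a cell viability assay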
Description: SANGER: Inhibition of human NCI-H720 cell growth in a cell viability assay.

COLO-320-HSR = format: functional, cell-based, Homo sapiens;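 also: growth inhibition of COLO-320-HSR cells, determined with a cell viability assay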
Description: SANGER: Inhibition of human COLO-320-HSR cell growth in a cell viability assay.

HDLM-2 = format: functional, cell-based, Homo sapiens;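 also: cell viability assay measuring suppression of HDLM-2 proliferation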
Description: SANGER: Inhibition of human HDLM-2 cell growth in a cell viability assay.

SHP77 = format: functional, cell-based, Homo sapiens, SHP-77;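 also: growth inhibition of human SHP-77 cells measured by a cell viability assay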
Description: SANGER: Inhibition of human SHP-77 cell growth in a cell viability assay.

TE-12 = format: functional, cell-based, Homo sapiens;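 also: growth inhibition of TE-12 cells, read out by a cell viability assay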
Description: SANGER: Inhibition of human TE-12 cell growth in a cell viability assay.

NEC8 = format: functional, cell-based, Homo sapiens;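 also: growth inhibition of human NEC8 cells, read out by a cell viability assay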
Description: SANGER: Inhibition of human NEC8 cell growth in a cell viability assay.

CTB-1 = format: functional, cell-based, Homo sapiens
Description: SANGER: Inhibition of human CTB-1 cell growth in a cell viability assay.

DEL = format: functional, cell-based, Homo sapiens;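 also: growth inhibition of the human DEL cell line, read out with a cell viability assay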
Description: SANGER: Inhibition of human DEL cell growth in a cell viability assay.

SK-MEL-2 = format: functional, cell-based, Homo sapiens;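 also: growth inhibition of human SK-MEL-2 cells measured with a cell viability assay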
Description: SANGER: Inhibition of human SK-MEL-2 cell growth in a cell viability assay.

SW872 = format: functional, cell-based, Homo sapiens;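 also: growth inhibition of SW872 cells, read out by a viability assay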
Description: SANGER: Inhibition of human SW872 cell growth in a cell viability assay.

HCC 2998 = format: functional, cell-based, Homo sapiens;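 also: growth inhibition of human HCC2998 cells, measured with a cell viability read-out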
Description: SANGER: Inhibition of human HCC2998 cell growth in a cell viability assay.

NCI-H1648 = format: functional, cell-based, Homo sapiens;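 also: cell viability assay measuring inhibition of NCI-H1648 cell growth, from the Sanger screening data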
Description: SANGER: Inhibition of human NCI-H1648 cell growth in a cell viability assay.

MZ2-MEL = format: functional, cell-based, Homo sapiens;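 also: growth inhibition of MZ2-MEL cells read out with a cell viability assay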
Description: SANGER: Inhibition of human MZ2-MEL cell growth in a cell viability assay.

ACN = format: functional, cell-based, Homo sapiens;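 also: growth inhibition of the human ACN cell line, read out via cell viability testing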
Description: SANGER: Inhibition of human ACN cell growth in a cell viability assay.

DB = format: functional, cell-based, Homo sapiens
Description: SANGER: Inhibition of human DB cell growth in a cell viability assay.

`COc1cc2ncn(-c3cc(OCc4ccccc4S(C)(=O)=O)c(C#N)s3)c2cc1OC` [GSK-319347A] gave an IC50 (LU-139; Homo sapiens, LU-139) of over 5 µM, an IC50 (HuTu80; Homo sapiens, HuTu80) of over 5 µM and an IC50 (JAR; Homo sapiens, JAR) of over 5 µM. It also gave an IC50 (NCI-N87; Homo sapiens, NCI-N87) of over 5 µM, an IC50 (KNS-42; Homo sapiens, KNS-42) of over 5 µM and an IC50 (MOLT-16; Homo sapiens, MOLT-16) of over 5 µM. For the same compound, the IC50 (UACC-257; Homo sapiens, UACC-257) was over 5 µM, the IC50 (GOTO; Homo sapiens, GOTO) was over 5 µM and the IC50 (MEG-01; Homo sapiens, MEG-01) was over 5 µM. It also gave an IC50 (D-247MG; Homo sapiens, D-247MG) of over 5 µM, an IC50 (MZ7-mel; Homo sapiens, MZ7-mel) of over 5 µM and an IC50 (SK-N-DZ; Homo sapiens, SK-N-DZ) of over 5 µM. It also gave an IC50 (MFM-223; Homo sapiens, MFM-223) of over 5 µM, an IC50 (LC-2-ad; Homo sapiens, LC-2-ad) of over 5 µM and an IC50 (NCI-H446; Homo sapiens, NCI-H446) of over 5 µM. For the same compound, the IC50 (KINGS-1; Homo sapiens, KINGS-1) was over 5 µM, the IC50 (NCI-H510A; Homo sapiens, NCI-H510A) was over 5 µM and the IC50 (JVM-3; Homo sapiens, JVM-3) was over 5 µM. For the same compound, the IC50 (ES5; Homo sapiens, ES5) was over 5 µM, the IC50 (EKVX; Homo sapiens, EKVX) was over 5 µM and the IC50 (LS-123; Homo sapiens, LS-123) was over 5 µM. The IC50 (NTERA-2-cl-D1; Homo sapiens, NTERA-2-cl-D1) was over 5 µM, the IC50 (GAK; Homo sapiens, GAK) was over 5 µM and the IC50 (NCI-H226; Homo sapiens, NCI-H226) was over 5 µM. For the same compound, the IC50 (OMC-1; Homo sapiens, OMC-1) was over 5 µM, the IC50 (EW-1; Homo sapiens, EW-1) was over 5 µM and the IC50 (L-363; Homo sapiens, L-363) was over 5 µM. The IC50 (A388; Homo sapiens, A388) was over 5 µM, the IC50 (GI-1; Homo sapiens, GI-1) was over 5 µM and the IC50 (IST-MES1; Homo sapiens, IST-MES1) was over 5 µM. It also gave an IC50 (OCI-AML2; Homo sapiens, OCI-AML2) of over 5 µM, an IC50 (MFH-ino; Homo sapiens, MFH-ino) of over 5 µM and an IC50 (OS-RC-2; Homo sapiens, OS-RC-2) of over 5 µM. It also gave an IC50 (no-10; Homo sapiens) of over 5 µM, an IC50 (NCI-H720; Homo sapiens, NCI-H720) of over 5 µM and an IC50 (COLO-320-HSR; Homo sapiens, COLO-320-HSR) of over 5 µM. It also gave an IC50 (HDLM-2; Homo sapiens, HDLM-2) of over 5 µM, an IC50 (SHP77; Homo sapiens, SHP77) of over 5 µM and an IC50 (TE-12; Homo sapiens, TE-12) of over 5 µM. The IC50 (NEC8; Homo sapiens, NEC8) was over 5 µM, the IC50 (CTB-1; Homo sapiens, CTB-1) was over 5 µM and the IC50 (DEL; Homo sapiens, DEL) was over 5 µM. For the same compound, the IC50 (SK-MEL-2; Homo sapiens, SK-MEL-2) was over 5 µM, the IC50 (SW872; Homo sapiens, SW872) was over 5 µM and the IC50 (HCC 2998; Homo sapiens, HCC 2998) was over 5 µM. The IC50 (NCI-H1648; Homo sapiens, NCI-H1648) was over 5 µM, the IC50 (MZ2-MEL; Homo sapiens, MZ2-MEL) was over 5 µM and the IC50 (ACN; Homo sapiens, ACN) was over 5 µM. The IC50 (DB; Homo sapiens, DB) was over 5 µM.

In the case of `N#Cc1c(O)c2c(-c3ccc(-c4ccccc4O)cc3)csc2[nH]c1=O`, the IC50 (LU-139; Homo sapiens, LU-139) is reported as over 1.02 µM, the IC50 (HuTu80; Homo sapiens, HuTu80) is reported as over 1.02 µM and the IC50 (JAR; Homo sapiens, JAR) is reported as over 1.02 µM. For the same compound, the IC50 (NCI-N87; Homo sapiens, NCI-N87) was over 1.02 µM, the IC50 (KNS-42; Homo sapiens, KNS-42) was over 1.02 µM and the IC50 (MOLT-16; Homo sapiens, MOLT-16) was 0.0619 µM. The IC50 (UACC-257; Homo sapiens, UACC-257) was over 1.02 µM, the IC50 (GOTO; Homo sapiens, GOTO) was 0.395 µM and the IC50 (MEG-01; Homo sapiens, MEG-01) was 0.269 µM. For the same compound, the IC50 (D-247MG; Homo sapiens, D-247MG) was over 1.02 µM, the IC50 (MZ7-mel; Homo sapiens, MZ7-mel) was over 1.02 µM and the IC50 (SK-N-DZ; Homo sapiens, SK-N-DZ) was 0.802 µM. It also gave an IC50 (MFM-223; Homo sapiens, MFM-223) of over 1.02 µM, an IC50 (LC-2-ad; Homo sapiens, LC-2-ad) of over 1.02 µM and an IC50 (NCI-H446; Homo sapiens, NCI-H446) of over 1.02 µM. For the same compound, the IC50 (KINGS-1; Homo sapiens, KINGS-1) was over 1.02 µM, the IC50 (NCI-H510A; Homo sapiens, NCI-H510A) was 0.692 µM and the IC50 (JVM-3; Homo sapiens, JVM-3) was over 1.02 µM. For the same compound, the IC50 (ES5; Homo sapiens, ES5) was over 1.02 µM, the IC50 (EKVX; Homo sapiens, EKVX) was over 1.02 µM and the IC50 (LS-123; Homo sapiens, LS-123) was over 1.02 µM. It also gave an IC50 (NTERA-2-cl-D1; Homo sapiens, NTERA-2-cl-D1) of over 1.02 µM, an IC50 (GAK; Homo sapiens, GAK) of over 1.02 µM and an IC50 (NCI-H226; Homo sapiens, NCI-H226) of 0.407 µM. For the same compound, the IC50 (OMC-1; Homo sapiens, OMC-1) was over 1.02 µM, the IC50 (EW-1; Homo sapiens, EW-1) was over 1.02 µM and the IC50 (L-363; Homo sapiens, L-363) was 0.211 µM. For the same compound, the IC50 (A388; Homo sapiens, A388) was over 1.02 µM, the IC50 (GI-1; Homo sapiens, GI-1) was over 1.02 µM and the IC50 (IST-MES1; Homo sapiens, IST-MES1) was over 1.02 µM. The IC50 (OCI-AML2; Homo sapiens, OCI-AML2) was 0.0572 µM, the IC50 (MFH-ino; Homo sapiens, MFH-ino) was over 1.02 µM and the IC50 (OS-RC-2; Homo sapiens, OS-RC-2) was over 1.02 µM. It also gave an IC50 (no-10; Homo sapiens) of over 1.02 µM, an IC50 (NCI-H720; Homo sapiens, NCI-H720) of over 1.02 µM and an IC50 (COLO-320-HSR; Homo sapiens, COLO-320-HSR) of over 1.02 µM. It also gave an IC50 (HDLM-2; Homo sapiens, HDLM-2) of 0.136 µM, an IC50 (SHP77; Homo sapiens, SHP77) of 0.383 µM and an IC50 (TE-12; Homo sapiens, TE-12) of over 1.02 µM. It also gave an IC50 (NEC8; Homo sapiens, NEC8) of 0.48 µM, an IC50 (CTB-1; Homo sapiens, CTB-1) of over 1.02 µM and an IC50 (DEL; Homo sapiens, DEL) of 0.228 µM. It also gave an IC50 (SK-MEL-2; Homo sapiens, SK-MEL-2) of over 1.02 µM, an IC50 (SW872; Homo sapiens, SW872) of over 1.02 µM and an IC50 (HCC 2998; Homo sapiens, HCC 2998) of over 1.02 µM. It also gave an IC50 (NCI-H1648; Homo sapiens, NCI-H1648) of over 1.02 µM, an IC50 (MZ2-MEL; Homo sapiens, MZ2-MEL) of over 1.02 µM and an IC50 (ACN; Homo sapiens, ACN) of over 1.02 µM. The IC50 (DB; Homo sapiens, DB) was 0.489 µM.

CISPLATIN showed an IC50 (LU-139; lu-139) of 95.6 µM, an IC50 (HuTu80; hutu-80) of 467 µM and an IC50 (JAR; jar) of 3.35 µM. For the same compound, the IC50 (NCI-N87; nci-n87) was 33 µM, the IC50 (KNS-42; kns-42) was 20.5 µM and the IC50 (MOLT-16; molt-16) was 8.36 µM. The IC50 (UACC-257; uacc-257) was 108 µM, the IC50 (GOTO; goto) was 3.09 µM and the IC50 (MEG-01; meg-01) was 21.7 µM. The IC50 (D-247MG; d-247mg) was 10.8 µM, the IC50 (MZ7-mel; mz7-mel) was 6.68 µM and the IC50 (SK-N-DZ; sk-n-dz) was 26.8 µM. For the same compound, the IC50 (MFM-223; mfm-223) was 615 µM, the IC50 (LC-2-ad; lc-2-ad) was 12.2 µM and the IC50 (NCI-H446; nci-h446) was 37.4 µM. The IC50 (KINGS-1; kings-1) was 42.8 µM, the IC50 (NCI-H510A; nci-h510a) was 3.1 µM and the IC50 (JVM-3; jvm-3) was 39.7 µM. It also gave an IC50 (ES5; es5) of 3.32 µM, an IC50 (EKVX; ekvx) of 485 µM and an IC50 (LS-123; ls-123) of 491 µM. It also gave an IC50 (NTERA-2-cl-D1; ntera-2-cl-d1) of 0.848 µM, an IC50 (GAK; gak) of 490 µM and an IC50 (NCI-H226; nci-h226) of 41.5 µM. For the same compound, the IC50 (OMC-1; omc-1) was 12.6 µM, the IC50 (EW-1; ew-1) was 8.48 µM and the IC50 (L-363; l-363) was 4.01 µM. For the same compound, the IC50 (A388; a388) was 51.9 µM, the IC50 (GI-1; gi-1) was 2.06 µM and the IC50 (IST-MES1; ist-mes1) was 19.7 µM. For the same compound, the IC50 (OCI-AML2; oci-aml2) was 15.3 µM, the IC50 (MFH-ino; mfh-ino) was 1340 µM and the IC50 (OS-RC-2; os-rc-2) was 3.87 µM. For the same compound, the IC50 (no-10) was 77.8 µM, the IC50 (NCI-H720; nci-h720) was 136 µM and the IC50 (COLO-320-HSR; colo-320-hsr) was 338 µM. It also gave an IC50 (HDLM-2; hdlm-2) of 144 µM, an IC50 (SHP77; shp-77) of 602 µM and an IC50 (TE-12; te-12) of 42.6 µM. For the same compound, the IC50 (NEC8; nec8) was 2.52 µM, the IC50 (CTB-1; ctb-1) was 2.3 µM and the IC50 (DEL; del) was 3.67 µM. For the same compound, the IC50 (SK-MEL-2; sk-mel-2) was 226 µM, the IC50 (SW872; sw872) was 40.8 µM and the IC50 (HCC 2998; hcc 2998) was 271 µM. It also gave an IC50 (NCI-H1648; nci-h1648) of 69.7 µM, an IC50 (MZ2-MEL; mz2-mel) of 13.4 µM and an IC50 (ACN; acn) of 34.3 µM. For the same compound, the IC50 (DB; db) was 2.14 µM.
